The target of data set [1] is T1, α-chymotrypsin (bovine pancreas) (Bos taurus, UniProt P00766).
T1 construct: purchased Sigma; host or cells: bovine pancreas
Description: Peptide enzymatic degradation assay, α-chymotrypsin. The format is in vitro ADME. Particulars: as E58; for stability to α-chymotrypsin (in words): compared with WT sequence. On the procedure:
(§1) into individual aliquots at -20 °C. […]
(§2) a concentration of 1 mg mL−1 concentration. The digestion samples were immediately prepared by mixing […]
(§3) were then incubated at 25 °C for 6 hours. […]
(§4) thermo-shaker for 6 hours. […]
(§5) presence of enzyme (t=0). […]
(§6) r = r଴ + A x e భ Eq. (SI - 10)
(§7) τ = tଵ ln(2) Eq. (SI - 11)
(§8) In all cases, control samples were […]
(§9) replicates and error bars indicating the corresponding SD. […]

Data set [2] relates to Trypsin. As to conditions: pH 7.5.
Description: (§10) Peptides were dissolved in digestion buffer (HEPES 25 mM, pH= 7.5) up to
(§11) in a polypropylene microcentrifuge tube an aliquot of the peptide and enzyme stock solutions in cold to
(§12) presence of Trypsin were carried out following a similar protocol, but incubating the samples at 37 °C in a
(§13) thermo-shaker for 6 hours. Quenched samples were directly analyzed by analytical RP-HPLC using a
(§14) relatively slow gradient running from 10% to 70% v/v acetonitrile : H2O over 10 min. To determine the
(§15) identity of the digested products, samples were analyzed by HR-LC/(ESI+)MS, using a Bruker maXis Impact
(§16) QTOF mass spectrometer (electrospray ionization source), with a Dionex UltiMate 3000 liquid chromatography system (Thermo Scientific), equipped with a Waters Acquity Protein BEH C4 Column (300
(§17) Angstrom pore size, 1.7um particle size, 2.1mm x 50mm).
(§18) The peaks corresponding to the unmodified peptides in the raw analytical chromatograms were baseline
(§19) corrected and their areas were integrated and normalized to the starting initial area of each peptide in the
(§20) presence of enzyme (t=0). The resulting data has been fitted to an exponential decay function:
(§21) where r0 is the normalized undegraded peptide area at the plateau, t1 is the normalized time-constant (min-
(§22) 1) and τ is the half-life of the compound (min). For all fitted data, r0 was given a lower bound limit of 0. For
(§23) each peptide, a minimum of three independent assays were performed. In all cases, control samples were
(§24) run in parallel by subjecting each peptide to the same procedure and conditions in the absence of enzyme.
Data set [3] has as its system Trypsin. Description: Peptide enzymatic degradation assay, trypsin. Particulars: as E60, compared with WT TACC3 518-532.
Description: as §10, §11, §12, §13, §14, §15, §16, §17, §18, §19, §20, §21, §22, §23, §24
For data set [4], the target named is T2, Aurora-A122-403-C290A/C393A (Homo sapiens, UniProt O14965, C290A/C393A).
T2 construct: Human Aurora-A kinase domain 122-403 wild-type or C290A/ C393A mutant; His tag (pET30TEV vector) (N, cleaved yes); made in house; host or cells: E. coli RIL, co-expressed with lambda phosphatase (Aurora-A); tracer by solid phase synthesis
T2 sequence (O14965 122-403 C290A/C393A): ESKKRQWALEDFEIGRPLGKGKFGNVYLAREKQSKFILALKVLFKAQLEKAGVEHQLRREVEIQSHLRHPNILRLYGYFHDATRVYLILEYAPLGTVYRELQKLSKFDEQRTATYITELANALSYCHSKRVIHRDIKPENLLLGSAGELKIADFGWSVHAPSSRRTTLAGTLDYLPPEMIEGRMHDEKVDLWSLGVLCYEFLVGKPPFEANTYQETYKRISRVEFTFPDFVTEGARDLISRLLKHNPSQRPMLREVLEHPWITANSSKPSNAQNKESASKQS
Description: Competition FA assay against FAM-Ahx-TACC3 522-536 tracer. The data set is classed as binding. Particulars: SD; read-out: IC50.

The target of data set [5] is T2, Aurora-A122-403-C290A/C393A. Description: Isothermal titration calorimetry (ITC). The data set is classed as binding. As to conditions: for -TΔS° / Kd / ΔG° / ΔH° / N (stoichiometry): ITC as E13. On the procedure:
Isothermal titration calorimetry (ITC). ITC experiments were carried out using a MicroCal PEAQ-ITC system (Malvern Panalytical) at 25 °C. A stock solution of Aurora-A 122-403-290A/C393A was dialyzed into ITC buffer overnight (25 mM Tris buffer, pH= 7.5; 150 mM NaCl; 5 mM MgCl2; 5 % v/v glycerol), and the same buffer was employed to resuspend a solid portion of the testing peptides. For each experiment, initially, the cell was filled with 275 µl of Aurora-A122-403-290A/C393A (46 μM) and the syringe was loaded with the corresponding peptide at 1.25 mM concentration. An initial injection of 0.5 μL was then followed by 13 injections of 3 μL, every 150 s, with a constant syringe rotation speed of 750 rpm throughout. The signal for the enthalpy of dilution of each peptide into buffer was independently measured in a control titration experiment and then subtracted from the experimental binding traces. The Kd, ΔG°, ΔH° and -TΔS° values were determined via the MicroCal PEAQ-ITC analysis software (Malvern Paranalytical) using a single-site binding model. […]
Background: In ITC the heat of successive injections is recorded.

Data set [6] addresses T3, Aurora-A122-403-C290A/C393A (N-Myc/Aurora-A interaction) (Homo sapiens, UniProt O14965, C290A/C393A).
T3 construct: Human Aurora-A kinase domain 122-403 wild-type or C290A/ C393A mutant; His tag (pET30TEV vector) (N, cleaved yes); made in house; host or cells: E. coli RIL, co-expressed with lambda phosphatase (Aurora-A)
T3 sequence (O14965 122-403 C290A/C393A): T2 sequence (O14965 122-403 C290A/C393A)
The data set is described as follows: FA competition assay against FAM-Ahx-N-Myc61-89. The data set is classed as binding. As to conditions: SD; read-out: IC50 (N-Myc displacement). On the procedure: (1 picture or pasted object on this page, not shown here)
FA competition assays were performed using the same plates and buffer as described above, with the initial […]
14 points in a 1/2 regime. […]
after 4 h of incubation to enable appropriate sample equilibration. To prevent sample oxidation, when sulfhydryl peptides were analyzed DTT was added to the buffer (5 mM). In competition mode, the average anisotropy and the average standard deviation of the values derived from equation SI-6 were calculated […]
When using peptides for which full
For consistency, all the data […]
indicating the corresponding SD.
Molecular dynamics (MD) analyses: All peptide–protein complexes were subjected to duplicate MD simulations using YASARA structure.13 Starting from the reported x-ray crystal structure of one molecule of […]
modifications were introduced by direct replacement of the relevant atoms within the structure. When needed, biphenyl constraints were modeled in YASARA by swapping the pertinent amino acids for cysteines and connecting them to biphenyl- fragments. […]
crystal structure), and then minimised structures were generated using the energy minimization function with default settings. The modelled complexes were subjected to MD simulations using YASARA structure macro for fast MD run (www.yasara.org/md_runfast.mcr).14 Briefly, the AMBER14 forcefield was used and […]

The nature of data set [7]: Peptide enzymatic degradation assay, α-chymotrypsin. The data set is classed as in vitro ADME, bovine. As to conditions: α-chymotrypsin (bovine pancreas), peptide 100 µM, peptide/enzyme molar ratio [P]/[E]= 25, HEPES 25 mM, pH 7.5, 25 °C, 6 hours; RP-HPLC peak area, exponential decay fit; three independent experiments, mean ± SD; SD; read-out: t1/2 in the presence of α-chymotrypsin. On the procedure: as §1, §2, §3, §4, §5, §6, §7, §8, §9

In data set [8] the target is T4, Aurora-A 122-403 (Homo sapiens, UniProt O14965).
T4 chain: T2 sequence (O14965 122-403 C290A/C393A) with A169C, A272C
Description: fluorescence anisotropy competition against TPX2. (Fluorescence polarisation rises when a labelled molecule tumbles more slowly, as on binding a larger partner.)

The target in data set [9] is T4, Aurora-A 122-403. Description: fluorescence anisotropy competition against N-Myc.
The mark [10] stands for this setting: N unrestrained fit, single titration.

Positions count from the first letter of the chain named. Numbers in names are those of the source. *1 amine or outer side, *2 acyl side, *3 side chain or, on linkers, in order; H or OH if unused. Where a SMILES comes first, the peptide text is derived from it. Bridges are numbered along the chain shown (N, C = ends). [ ]: non-standard residue; d: D form. Biphenyl(4,4'-CH2)2 = c1cc(-c2ccc(C[*:2])cc2)ccc1C[*:1]; Pro(trans-4-F) = O=C(O)[C@@H]1C[C@@H](F)CN1; Phe(4-I) = N[C@@H](Cc1ccc(I)cc1)C(=O)O

Regarding `CC(=O)N[C@@H](CC(C)C)C(=O)N[C@@H](CCC(=O)O)C(=O)N[C@H]1CSCc2ccc(cc2)-c2ccc(cc2)CSC[C@@H](C(=O)N[C@@H](CC(=O)O)C(=O)N2C[C@H](F)C[C@H]2C(=O)N[C@@H](C)C(=O)N[C@@H](CCC(=O)O)C(=O)N[C@H](C(=O)N[C@@H](CC(C)C)C(N)=O)C(C)C)NC(=O)[C@H](Cc2ccc(I)cc2)NC(=O)[C@H](CO)NC(=O)[C@H](CCC(=O)O)NC(=O)[C@H](CCC(=O)O)NC(=O)[C@H](CCCCN)NC1=O` [TACC3 518-532-L/R-Bph-IF/fP] (Ac-LECKEES[Phe(4-I)]CD[Pro(trans-4-F)]AEVL-NH2; linker 3-9 via Biphenyl(4,4'-CH2)2), the “time resistant to chymotrypsin with no cleavage by-products detected” value in [1] (HPLC and LC/MS analysis) is ~ 6 hr. Moreover, the “stability to α-chymotrypsin (in words)” value in [1] is reported as “increased resistance”. The “t1/2 in the presence of trypsin” value with Trypsin [2] is given as ≥ 330 min. Also, the “stability to trypsin (in words)” value in the data set on Trypsin [3] is on record as “increased resistance”. Further, in data set [4], the IC50 (commonly the concentration at which inhibition is half-maximal) turned out to be 17 ± 1 µM. Moreover, in data set [5] (N restrained fit, Run 1), the “-TΔS°” value was -5.5 kcal/mol; the Kd (in general, the constant that tells how readily two partners part at equilibrium) came to 5.6 µM; the “ΔG°” value was -7.17 kcal/mol; the “ΔH°” value was -1.65 kcal/mol. Also, in data set [5] (N restrained fit, Run 2), the “-TΔS°” value was -5.33 kcal/mol, binding was characterised by a dissociation constant (Kd) of 5.9 µM, the “ΔG°” value was -7.15 kcal/mol and the “ΔH°” value is -1.79 kcal/mol. Besides, in data set [5] (N unrestrained fit, Run 1), the “-TΔS°” value was -5.71 kcal/mol, the Kd was found to be 4.6 µM, the “N (stoichiometry)” value is given as 1.06 and the “ΔG°” value was -7.29 kcal/mol. For the same molecule, the “ΔH°” value in [5] (N unrestrained fit, Run 1) was -1.55 kcal/mol. Besides, in data set [5] (N unrestrained fit, Run 2), the “-TΔS°” value was -5.43 kcal/mol, the Kd was found to be 5.5 µM, the “N (stoichiometry)” value turned out to be 1.02 and the “ΔG°” value was -7.17 kcal/mol. The “ΔH°” value in data set [5] (N unrestrained fit, Run 2) is -1.74 kcal/mol. Besides, the “-TΔS” value in data set [5] (ITC as E40, average of two independent titrations) was -5.43 kcal/mol. Also, the IC50 in data set [6] is 28.3 ± 1.2 µM.
With `CC(=O)N[C@@H](CC(C)C)C(=O)N[C@@H](CCC(=O)O)C(=O)N[C@@H](CC(C)C)C(=O)N[C@@H](CCCCN)C(=O)N[C@@H](CCC(=O)O)C(=O)N[C@@H](CCC(=O)O)C(=O)N[C@H]1CSCc2ccc(cc2)-c2ccc(cc2)CSC[C@@H](C(=O)N[C@H](C(=O)N[C@@H](CC(C)C)C(N)=O)C(C)C)NC(=O)[C@H](C)NC(=O)[C@@H]2C[C@@H](F)CN2C(=O)[C@H](CC(=O)O)NC(=O)[C@H](CCCNC(=N)N)NC(=O)[C@H](Cc2ccc(I)cc2)NC1=O` [TACC3 518-532-S/E-Bph-IF/fP] (Ac-LELKEEC[Phe(4-I)]RD[Pro(trans-4-F)]ACVL-NH2; linker 7-13 via Biphenyl(4,4'-CH2)2), in data set [1], the “stability to α-chymotrypsin (in words)” value is given as “not protected”. The half-life at 100 µM in data set [7] was determined as 26 ± 2 min. Moreover, in the data set on Trypsin [3], the “stability to trypsin (in words)” value is given as “only partially improved stability”. Moreover, the “stability to trypsin (in words)” value in the data set on Trypsin [3] (listed as S/E constrained variant) is on record as “not protected”. The IC50 in data set [4] was determined as 12 ± 1 µM. Moreover, in data set [5] (setting [10]), the “-TΔS°” value is -4.47 kcal/mol; the affinity, expressed as Kd, was 16.7 µM; the “N (stoichiometry)” value is given as 1.62; the “ΔG°” value is -6.52 kcal/mol. Also, the “ΔH°” value in [5] (setting [10]) was -2.06 kcal/mol.

B1: TACC3 L/R-Bph-I/fP 518-532 (peptide)
chain: LELKEESFRDPAEVL
modifications: not fully specified; L520C/R526C biphenyl constraint, (4-I)Phe525, trans-(4-F)Pro528; Aurora-A C290A+C393A
Regarding B1, the values for the IC50 in the data set with Aurora-A 122-403 [8] and with Aurora-A 122-403 [9] were > 200 µM and 28 µM, respectively.

Values taken from PMC11604048, “Constrained TACC3 peptidomimetics for a non-canonical protein–protein interface elucidate allosteric communication in Aurora-A kinase” (Chemical Science, 2024).
